# Values of other authors, collected in patent publication US12326454B2 (Arium BioLabs LLC, priority 2019, dated 2025).
# Target: cMET (Homo sapiens, UniProt P08581)
# Settings: stabilizes the A-loop, auto-inhibited conformation
# Sequence of cMET (P08581 25-1390): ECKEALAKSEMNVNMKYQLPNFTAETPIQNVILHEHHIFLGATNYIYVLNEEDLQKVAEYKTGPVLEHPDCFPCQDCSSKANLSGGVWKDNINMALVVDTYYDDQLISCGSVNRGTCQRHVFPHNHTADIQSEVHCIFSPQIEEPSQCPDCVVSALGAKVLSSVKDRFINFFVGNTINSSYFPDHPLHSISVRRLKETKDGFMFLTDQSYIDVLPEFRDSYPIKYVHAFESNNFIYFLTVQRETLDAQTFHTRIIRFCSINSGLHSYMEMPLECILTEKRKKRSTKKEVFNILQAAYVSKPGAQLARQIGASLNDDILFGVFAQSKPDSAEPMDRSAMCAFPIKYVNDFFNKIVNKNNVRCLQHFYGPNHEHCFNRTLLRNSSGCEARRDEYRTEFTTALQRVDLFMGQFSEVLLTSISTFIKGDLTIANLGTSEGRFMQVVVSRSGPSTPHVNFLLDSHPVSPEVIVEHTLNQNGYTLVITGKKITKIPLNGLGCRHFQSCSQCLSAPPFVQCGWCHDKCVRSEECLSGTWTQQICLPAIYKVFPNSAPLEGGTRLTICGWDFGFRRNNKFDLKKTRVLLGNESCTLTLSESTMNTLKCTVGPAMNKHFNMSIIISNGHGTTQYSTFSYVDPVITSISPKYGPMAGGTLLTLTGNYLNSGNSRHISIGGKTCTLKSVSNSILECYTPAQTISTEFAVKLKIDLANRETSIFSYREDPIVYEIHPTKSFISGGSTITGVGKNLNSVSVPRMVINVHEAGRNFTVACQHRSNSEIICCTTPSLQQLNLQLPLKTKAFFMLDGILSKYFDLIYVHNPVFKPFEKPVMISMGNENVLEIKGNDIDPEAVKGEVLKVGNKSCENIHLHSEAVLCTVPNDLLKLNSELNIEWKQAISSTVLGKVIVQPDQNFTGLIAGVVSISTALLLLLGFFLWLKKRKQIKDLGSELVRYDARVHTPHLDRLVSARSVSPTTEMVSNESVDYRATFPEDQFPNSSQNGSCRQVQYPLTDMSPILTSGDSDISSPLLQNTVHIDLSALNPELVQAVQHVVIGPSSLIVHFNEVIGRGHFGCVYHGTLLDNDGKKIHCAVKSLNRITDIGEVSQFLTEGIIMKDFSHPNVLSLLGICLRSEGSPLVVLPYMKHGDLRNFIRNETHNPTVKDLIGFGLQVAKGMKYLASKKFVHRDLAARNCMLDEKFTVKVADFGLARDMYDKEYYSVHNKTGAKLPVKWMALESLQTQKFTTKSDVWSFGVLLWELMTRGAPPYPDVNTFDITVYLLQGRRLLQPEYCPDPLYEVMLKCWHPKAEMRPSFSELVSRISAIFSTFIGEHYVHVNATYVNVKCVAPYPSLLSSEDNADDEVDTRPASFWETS
structure (smiles),measurement,value
O=C1NC(=O)[C@@H](c2cn3c4c(cccc24)CCC3)[C@@H]1c1c[nH]c2ccccc12 [ARQ197],effect on cMET,selectively inhibits cMET
